Earlier results on two molecules are cited in patent US7632656B2, “High performance liquid chromatography with an aqueous mobile phase for analysis of drug and its metabolite” (Cellseed Inc., priority 2003, dated 2009).

As usually defined, the logP is a log measure of how a compound divides between an organic and an aqueous phase.

The conditions of the data set: listed with the structures of the CYP probe drugs; method not stated.

Regarding `CCOc1ccc(NC(C)=O)cc1` [Phenacetin], the logP is on record as 0.985.

Regarding `CC12CCC(=O)C=C1CCC1C2CCC2(C)C(O)CCC12` (centres unmarked) [Testosterone], the logP is listed as 2.899.
